Results published in US8624079B2, “Knockin mouse with a disruption in a PXR gene expressing human PXR” (ITI Scotland Limited, priority 2007, dated 2014).
“And” between values parts separate entries of the source, which are not always exact repeats. Equal entries are not always repeated.

Key:
Cyp3a11 [1] = assay: Midazolam metabolism in koCyp3a11 mice; details: male koCyp3a11 mice compared to male wild type mice
Description: The also inventors studied the pharmacokinetics of midazolam (MDZ; metabolisation to form 1-hydroxymidazolam) in male koCyp3a11 mice, in comparison to male wild type mice.

[2] = wild-type, koPXR or koCAR mice; 40 mg/kg
Method: For the same animals, plasma levels of alanine aminotransferase (ALT), alkaline phosphatase (ALP) and aspartate aminotransferase (AST) were also measured (see FIG. 40). […] Both compounds were administered at 40 mg/kg.
Plasma levels of alanine aminotransferase (ALT), alkaline phosphatase (ALP) and aspartate aminotransferase (AST) were also measured (see FIG. 46).

liver cells = assay: BrdU incorporation in liver (hepatic cell proliferation, S-phase labelling index); format: in vivo, mouse; details: for % BrDu Positive Cells, % mean (of own control) / % BrDu Positive Cells, Mean / % BrDu Positive Cells (individual mouse): liver; for cell proliferation (BrdU positive cells): huPXR/huCAR or PXRKO/CARKO mice
liver [3] = assay: TUNEL labelling assay (hepatic in situ cell death); format: in vivo, mouse; details: WT, huPXR/huCAR and PXRKO/CARKO mice; PB 80 mg/kg ip daily for 4 days
Description: However, no such consistency has been observed in mice. An indirect TUNEL labelling assay was used to analyse hepatic in situ death (FIG. 128/Table 4). The present study has shown a marker variation in apoptotic indices in mouse liver. Thus, small (e.g. 50%) compound-induced decreases, upon a low background, were not readily demonstrable.

Cyp3a11 [4] = assay: Cyp3a11 protein expression in liver microsomes of treated mice by SDS-PAGE and Western blotting; details: mouse, in vivo, 40 mg/kg
Method: (§1) Dosing solutions were prepared on the day of administration by adding corn oil to the requisite quantity of test substance and stirring to obtain a solution or fine suspension. The concentration of PCN was 10 mg/ml and Rif 2.5 mg/ml of supplied chemical, without any correction for purity. Records of preparation were retained.
The volume of vehicle and solutions of inducing agents administered was 10 ml/kg bodyweight. This route of administration was chosen for consistency with previously published work. […]
(§2) Quantification of Cyp3a11, Cyp2b10 and PXR protein in liver microsomes of all mice samples was carried out by SDS-PAGE and Western blotting. To detect murine and human PXR protein, an antibody (RF8) was employed. For the identification of Cyp3a and Cyp2b, […] were used, (CH32 and CH4, respectively).

Cyp3a11 and Cyp2b10 = assay: Comparative induction study in PXR/CAR humanised and knockout panel (Cyp3a11, Cyp2b10 protein, BQ and PROD activity); details: mice in which CAR had been knocked out; 40 mg/kg
Description: The effects of phenobarbital on Cyp3a11 and Cyp2b10 induction were compared in wild type, huPXR, koPXR, huCAR, koCAR, huPXR/huCAR, koPXR/koCAR huPXR/koCAR and koPXR/huCAR mice (see FIG. 87).

Cyp1a1/1a2 and Cyp1b1 = assay: MROD and EROD activity in liver microsomes of treated mice; details: PB 80 mg/kg ip daily for 4 days
Description: EROD activity is indicative of Cyp1a1/1a2 and Cyp1b1 in the mouse, whereas MROD is a substrate for Cyp1a2. However, other isoforms may be contributing to the measured activities. The results from the two enzyme assays are in reasonably good agreement with each other (FIG. 130a-b) As the Cyp1a2 gene is constitutively expressed, this may explain the basal levels of activity observed in both activity assays.

Cyp2b10 [5] = assay: pentoxyresorufin-O-deethylation (PROD) and BROD activity assay in liver microsomes of treated mice; details: for BROD and PROD activities (Cyp2b10 / P450 induction): WT and huPXR/huCAR mice
Cyp3a = assay: 7-benzyloxyquinoline (BQ) activity assay in liver microsomes of treated mice; details: PB 80 mg/kg ip daily for 4 days
Method: PXR activity was determined by measuring the metabolism of a number of cytochrome P450 substrates which are metabolised to different extents by different cytochrome P450 enzymes. The following assays were performed: • 7-benzyloxyquinoline (BQ) activity was determined in liver microsomes. • Testosterone hydroxylase activity was determined in liver microsomes (LMS HPLC-006). • The specific activities of these reactions was expressed per mg protein as determined using the Lowry assay (LMS Spec-0001).

liver [6] = assay: H&E histopathology of liver and small intestine; format: in vivo, mouse
Description: Two samples of the liver (one from the lobe, one from the median lobe) and one sample of the small intestine were taken and preserved in 4% neutral buffered formaldehyde (NBF). The preserved liver samples of all mice of all groups were trimmed, processed and embedded in paraffin. The paraffin-embedded samples were sent to Progenix, Inverkeithing, UK where they were sectioned at a nominal thickness of about 5 áem and then stained with haematoxylin and eosin (H&E). One section of each organ sample was examined by Dr. Ortwin Vogel, Consultant Pathologist, Kiel, Germany. Subsequent to his histopatholoical analysis of all H&E stained mouse livers and small intestines, Dr. Vogel reported the following finding;

[7] = Liver/body weight ratios (hepatomegaly); format: in vivo, mouse; details: PB 80 mg/kg ip daily for 4 days; for Body weight (g) - Day 5 / Liver weight / Liver/Body weight Ratio: Mean ± SD; for hepatomegaly: WT and huPXR/huCAR mice
Description: Post operation all animals had no abnormalities detected.

Cyp2b10 [8] = assay: Cyp2b10 protein expression of treated mice by SDS-PAGE and Western blotting; details: for Cyp2b10 protein in pooled liver microsomes (Western blot): PB 80 mg/kg ip daily for 4 days
Method: as §1
Control animals were administered vehicle (corn oil) daily by intraperitoneal injection. The volume of vehicle and solutions of inducing agents administered was 10 ml/kg bodyweight. This route of administration was chosen for consistency with previously published work. […]
as §2

[9] = wild type mice; rifampicin 10 mg/kg per day for 3 days before midazolam
[10] = PXRKO/CARKO mice, PB 80 mg/kg ip daily for 4 days
[11] = PXRKO/CARKO mice, PB 80 mg/kg ip daily for 4 days, listed as PB
[12] = WT mice, PB 80 mg/kg ip daily for 4 days
[13] = huPXR/huCAR mice, PB 80 mg/kg ip daily for 4 days
[14] = PB 80 mg/kg ip daily for 4 days
[15] = PB 80 mg/kg ip daily for 4 days, listed as PB

Cc1ncc2n1-c1ccc(Cl)cc1C(c1ccccc1F)=NC2 [midazolam]
1-hydroxymidazolam formation (Cyp3a11 [1]): significantly reduced

CCC1(c2ccccc2)C(=O)NC(=O)NC1=O [phenobarbital, Phenobarbital]
hepatotoxicity (liver/body weight ratio, plasma ALT, ALP, AST) [2]: No hepatotoxicity was detected | % BrDu Positive Cells, % mean (of own control) (liver cells; [10]): 144% | % BrDu Positive Cells, Mean (liver cells; [10]): 2.83% | % BrDu Positive Cells (individual mouse) (liver cells; [11]): 2.16% and 1.98% and 1.82% and 2.30% and 3.77% and 5.10% and 3.71% and 1.88% and 3.06% and 2.51% | increase of hepatocellular labelling index (S-phase) (liver cells; [12]): approximately 5 fold | % BrDu Positive Cells, % mean (of own control) (liver cells; [12]): 531% | % BrDu Positive Cells, Mean (liver cells; [12]): 9.30% | % BrDu Positive Cells (individual mouse) (liver cells; WT mice, PB 80 mg/kg ip daily for 4 days, listed as PB): 9.45% and 5.54% and 16.69% and 6.32% and 9.50% and 8.09% and 7.64% and 13.60% | % BrDu Positive Cells, % mean (of own control) (liver cells; [13]): 104% | % BrDu Positive Cells, Mean (liver cells; [13]): 2.00% | % BrDu Positive Cells (individual mouse) (liver cells; huPXR/huCAR mice, PB 80 mg/kg ip daily for 4 days, listed as PB): 0.37% and 0.-18% and 1.19% and 1.86% and 3.GO and 1.98% and 3.18% and 3.24% and 2.13% | cell proliferation (BrdU positive cells) (liver cells; [14]): No increase in BrdU positive cells was observed | cell proliferation (BrdU positive cells) (liver cells; [15]): appeared to have no effect on cell proliferation | hepatocellular proliferation (% BrdU-positive cells) (liver cells; wild-type mice, phenobarbital vs unexposed control): hepatocellular proliferation only in wild-type mice | hepatic apoptotic indices (TUNEL), PB-treated vs control (liver [3]): no statistical significance found | Cyp3a11 expression in liver (Western blot) (Cyp3a11 [4]): significantly reduced | induction of Cyp3a11 and Cyp2b10 protein expression or activity in the BQ and PROD assays (Cyp3a11 and Cyp2b10): Little or no induction | MROD and EROD enzyme activities (Cyp1a1/1a2 and Cyp1b1; PXRKO/CARKO line): no increase | MROD and EROD enzyme activities (Cyp1a1/1a2 and Cyp1b1; WT and huPXR/huCAR mice): increased | PROD or BROD activities (Cyp2b10 / P450 induction) (Cyp2b10 [5]; [11]): not altered | BROD and PROD activities (Cyp2b10 / P450 induction) (Cyp2b10 [5]; [14]): led to both hepatomegaly and P450 induction | BROD and PROD activities (Cyp2b10 / P450 induction) (Cyp2b10 [5]; [15]): marker Cyp2b10 induction was observed, at similar levels | Cyp3a11 induction (BQ activity) (Cyp3a; PXRKO/CARKO mice): absence of Cyp3a11 induction | increase in BQ activity (Cyp3a; WT mice): marginal increase | increase in BQ activity (Cyp3a; huPXR/huCAR mice): 5 fold | hepatocellular hypertrophy (H&E, microscopic) (liver [6]; [10]): no unequivocal evidence of a hepatocellular hypertrophy | pathological evidence in liver (pathologist's conclusion) (liver [6]; PXRKO/CARKO strain, PB 80 mg/kg/4days/IP): Evidence of hepatocellular hyperplasia occurred | pathological evidence in liver (pathologist's conclusion) (liver [6]; WT and huPXR/huCAR strain, PB 80 mg/kg/4days/IP): pathological evidence of a hepatocellular hypertrophy/hyperplasia | mitotic figures indicating hepatocellular proliferation (H&E) (liver [6]; WT, huPXR/huCAR and PXRKO/CARKO mice, PB 80 mg/kg ip daily for 4 days): noted mainly in PB-treated WT mice | microscopic findings in the small intestine (liver [6]; all mouse lines, PB 80 mg/kg/4days/IP): No microscopic findings were recorded in the small intestine | hepatocellular hypertrophy (H&E, microscopic) (liver [6]; huPXR/huCAR and WT mice, PB 80 mg/kg ip daily for 4 days): slight to moderate centrilobular hepatocellular hyperthrophy | Body weight - Day 5 (% mean own control ± % SD) ([7]; PXRKO/CARKO mice): (98 ± 8) % | Liver weight (% mean own control ± % SD) ([7]; PXRKO/CARKO mice): (98 ± 16) % | Liver/Body weight Ratio (% mean own control ± % SD) ([7]; PXRKO/CARKO mice): (100 ± 9) % | Body weight (g) - Day 5 ([7]; PXRKO/CARKO mice): 26.6 ± 2.2 g | Liver weight ([7]; PXRKO/CARKO mice): 1.42 ± 0.23 g | Liver/Body weight Ratio ([7]; PXRKO/CARKO mice): 5.3 ± 0.4 | hepatomegaly [7]: led to both hepatomegaly and P450 induction | hepatomegaly ([7]; listed as PB): observed | Body weight - Day 5 (% mean own control ± % SD) ([7]; WT mice): (84 ± 5) % | Liver weight (% mean own control ± % SD) ([7]; WT mice): (101 ± 6) % | Body weight (g) - Day 5 ([7]; WT mice): 23.2 ± 1.3 g | Liver weight ([7]; WT mice): 1.44 ± 0.09 g | Liver/Body weight Ratio ([7]; WT mice): 6.2 ± 0.2 | Body weight - Day 5 (% mean own control ± % SD) ([7]; huPXR/huCAR mice): (99 ± 6) % | Liver weight (% mean own control ± % SD) ([7]; huPXR/huCAR mice): (121 ± 11) % | Body weight (g) - Day 5 ([7]; huPXR/huCAR mice): 25.4 ± 1.5 g | Liver weight ([7]; huPXR/huCAR mice): 1.69 ± 0.16 g | Liver/Body weight Ratio ([7]; huPXR/huCAR mice): 6.7 ± 0.6 | Cyp2b10 protein in pooled liver microsomes (Western blot) (Cyp2b10 [8]; PXRKO/CARKO mice): not in the PXRKO/CARKO animals | Cyp2b10 protein in pooled liver microsomes (Western blot) (Cyp2b10 [8]; WT and huPXR/huCAR mice): induced | Cyp2b10 expression in liver (Western blot) (Cyp2b10 [8]; koCAR mice, 40 mg/kg): significantly reduced | Cyp2b10 expression (Western blot and PROD activity, liver) (Cyp2b10 [8]; wild-type and huCAR mice, 40 mg/kg): induced Cyp2b10 expression both in the wild-type and in huCAR mice

CO[C@H]1/C=C/O[C@@]2(C)Oc3c(C)c(O)c4c(O)c(c(/C=N/N5CCN(C)CC5)c(O)c4c3C2=O)NC(=O)/C(C)=C\C=C\[C@H](C)[C@H](O)[C@@H](C)[C@@H](O)[C@@H](C)[C@H](OC(C)=O)[C@@H]1C [rifampicin]
effect of rifampicin pre-treatment on midazolam pharmacokinetics [9]: no significant effect was observed | induction of Cyp2b10 activity (Cyp2b10 [5]; wild-type or huPXR mice, rifampicin): did not induce | induction of Cyp2b10 expression (Cyp2b10 [8]; mouse, in vivo): did not induce | induction of Cyp2b10 expression and PROD activity (Cyp2b10 [8]; mouse, in vivo): only in the huPXR.1 mouse, but not in the wild type or in the huPXR mouse | induction of Cyp2b10 protein (Western blot) (Cyp2b10 [8]; mouse, in vivo, ip): not markedly induced
